These results are taken from patent US20240197812A1, “Methods of Treating Cardiac Injury” (Proletariat Therapeutics, Inc., priority 2022, published 2024).

SMILES strings stand for the structures.

The data set concerns critically ill patients with vasodilatory shock. As to the kind of experiment: Prospective observational study: safety (thromboembolic events, serum troponin elevation). Conditions: for Elevated serum troponin - %: troponin I level ≥20 ng/L. In kind it is in vivo. The protocol:
A prospective observational study was conducted to evaluate the efficacy, safety feasibility of using angiotensin II as a primary vasopressor for treatment of critically ill patients with vasodilatory shock.
Study Population: A total of 40 patients receiving angiotensin II were matched to 80 control patients who received conventional vasopressors (norepinephrine, vasopressin, metaraminol, epinephrine, or combinations thereof). […] The mean patient age was 63 years (SD 14 years), two-thirds of patients were male, and the median APACHE III score was 65 (IQR 49 to 80). There were no significant differences between groups in terms of demographics, clinical characteristics, illness severity, baseline vasopressor type and dose, physiological parameters, or biochemistry.
Vasodilatory shock was defined by a mean arterial pressure <65 mmHg in the presence of sufficient volume resuscitation and preserved cardiac output, based on either a cardiac index ≥2.3 L/min/m^2, a central venous oxygen saturation ≥70%, or clinician judgement. Patients were excluded if they had kidney failure (i.e., chronic hemodialysis, peritoneal dialysis or a baseline estimated glomerular filtration rate <15 mL/min/1.73 m^2) or were diagnosed with arterial (acute coronary syndrome, ischemic stroke, or mesenteric ischemia) or venous thrombosis (deep vein thrombosis or pulmonary embolism) within the preceding 6 months. […] The mean patient age was 63 (SD 14) years, two-thirds of patients were male, and the median APACHE III score was 65 (IQR 49 to 80). There were no significant differences between the angiotensin II group and the conventional vasopressor group in terms of demographics, clinical characteristics, illness severity, vasopressor type and use, physiological parameters, or biochemistry.
Intervention: Infusions of angiotensin II were initiated to deliver a dose between 5 and 10 ng/kg/min. The dose was adjusted every 5 minutes according to a protocolized titration scheme to achieve a mean arterial pressure (MAP) of ≥65 mmHg (dose range 1.25 to 40 ng/kg/min). During the adjustment period, infusions of other vasopressor agents were weaned and discontinued where possible. Where the MAP was inadequate despite the maximum dose of angiotensin II, additional vasopressor agents were prescribed at the discretion of the clinician. The use of vasopressin (dose range 0.01 to 0.04 IU/min) was preferred over the use of norepinephrine (dose range 0 to 40 mcg/min). Angiotensin II was continued until resolution of shock, death, or for a maximum of 7 days. If ongoing vasopressor therapy was required after this time, norepinephrine was utilized.
Control: The control arm included critically ill patients with vasodilatory shock who received conventional vasopressors. To address confounding by indication and other sources of bias arising from the use of non-randomized data, a propensity score was estimated for the likelihood of treatment with angiotensin II to match patients in the intervention arm to their nearest neighbor in the control arm using a 1:2 ratio without replacement. Propensity scores were generated based on age, sex, APACHE II score, serum creatinine level, vasopressor type and dose at enrollment, and time from ICU admission and initiation of any vasopressor to initiation of angiotensin II.
Secondary Outcomes: Secondary renal outcomes included new or progressive AKI, creatinine trajectory, the requirement for CRRT, time to CRRT liberation, and the development of a major adverse kidney event at day 7 (MAKE7). New AKI was defined and staged according to the Kidney Disease Improving Global Outcomes (KDIGO) criteria as a rise in serum creatinine of ≥26.5 μmol/L in 48 hours or as a ≥50% increase in serum creatinine from baseline within 7 days. Progressive AKI was defined as an increase in AKI severity by at least one KDIGO stage. MAKE7 was a composite of death, dialysis dependence, and a persistent 50% increase in serum creatinine level. […]

`CC[C@H](C)[C@H](NC(=O)[C@H](Cc1ccc(O)cc1)NC(=O)[C@@H](NC(=O)[C@H](CCCNC(=N)N)NC(=O)[C@@H](N)CC(=O)O)C(C)C)C(=O)N[C@@H](Cc1cnc[nH]1)C(=O)N1CCC[C@H]1C(=O)N[C@@H](Cc1ccccc1)C(=O)O` [Angiotensin II, Asp-Arg-Val-Tyr-Ile-His-Pro-Phe]: the “Elevated serum troponin - %” value is reported as “(8) %”. Further, under “in vivo”, the “Deep vein thrombosis - %” value is “(5) %” and the “Pulmonary embolus - %” value is “(10) %”. In addition, for the setting “number of patients”, the “Deep vein thrombosis - no.” value was determined as 2 and the “Pulmonary embolus - no.” value is recorded as 4. In addition, the “Elevated serum troponin - %” value (listed as angiotensin II) came out at 8%.
